The source of these data is US11267824B2, “Inhibitors of indoleamine 2,3-dioxygenase and/or tryptophan 2,3-dioxygenase” (IDORSIA PHARMACEUTICALS LTD, priority 2017, dated 2022).

Usually IC50 stands for the concentration at which inhibition is half-maximal.

The target in assay [1] is Recombinant human TDO comprising amino acids 19-407 (Homo sapiens (Human), UniProt P48775). The experiment in a line: TDO2 enzymatic assay (TDO inhibitory activity). The conditions noted are these: 15 nM enzyme, 200 μM L-tryptophan, pH7, 30 min pre-incubation, NFK quantified by LCMS, mean values if measured multiple times. Format: biochemical. As to the method: 2) Testing Compounds for TDO Inhibitory Activity in a TDO2 Enzymatic Assay:
Recombinant human TDO comprising amino acids 19-407 with a N-terminal hexahistidine tag expressed in E. coli and purified to homogeneity is incubated at a final concentration of 15 nM in assay buffer consisting of 75 mM phosphate buffer at pH7 supplemented with 100 μM ascorbic acid, 50 U/ml Catalase, 0.01% BSA, and 0.01% Tween 20 (protocol modified from Seegers et al, JBS 2014). Example compounds are serially diluted in DMSO, further diluted in phosphate buffer, and added to the reaction mixture at final concentrations ranging from 10 μM to 0.5 nM. The final DMSO concentration is 0.6%. Following a pre-incubation of 30 minutes at RT, the reaction is started by the addition of L-tryptophan at a final concentration of 200 μM in assay buffer. After 30 minutes of incubation at RT, 3 μL of the reaction mixture are transferred to a 384 deep well plate containing 25 μL of deionized water. 100 μl of 200 nM L-Tryptophan-(indole-d5) in cold 100% methanol are added followed by a 10 minutes centrifugation at 4,000 rpm at 4° C. An additional 75 μL of deionized water are then added and followed by a 10 minutes centrifugation at 4,000 rpm at 4° C. The product of the reaction N′-Formylkynurenine (NFK) is quantified by LCMS and normalized to the L-Tryptophan-(indole-d5) signal. Samples with 0.6% DMSO (0% effect) and a TDO/IDO inhibitor (100% effect) are used as control samples to set the parameters for the non-linear regression necessary for the determination of the half-maximal inhibitory concentration (IC50) for each compound. For each compound concentration the percentage of activity compared to 0% and 100% effect is calculated as average±STDEV (each concentration measured in duplicate). IC50 values and curves are generated with XLfit software (IDBS) using Dose-Response One Site model 203 (four parameter logistic curve model). When compounds are measured multiple times, mean values are given.

Assay [2] has as its target Recombinant full-length human IDO1 (Homo sapiens (Human), UniProt P14902). The experiment in a line: IDO1 enzymatic assay (IDO inhibitory activity). Format: biochemical. The conditions noted are these: 2 nM enzyme, 5 μM L-tryptophan, pH6.5, 30 min pre-incubation, NFK quantified by LCMS; mean values if measured multiple times; read-out: hIDO activity (IC50 in nM). As to the method:
1) Testing Compounds for IDO Inhibitory Activity in an IDO1 Enzymatic Assay:
Recombinant full-length human IDO1 with a N-terminal hexahistidine tag expressed in E. coli and purified to homogeneity is incubated at a final concentration of 2 nM in assay buffer consisting of 37.5 mM phosphate buffer at pH6.5 supplemented with 10 mM sodium L-ascorbate, 0.45 μM methylene blue, 50 U/ml catalase, 0.01% BSA, and 0.01% Tween 20 (protocol modified from Seegers et al, JBS 2014). Example compounds are serially diluted in DMSO, further diluted in phosphate buffer, and added to the enzyme at final concentrations ranging from 10 μM to 0.5 nM. The final DMSO concentration is 0.6%. Following a pre-incubation of 30 minutes at RT, the reaction is started by the addition of L-tryptophan at a final concentration of 5 μM in assay buffer. After 30 minutes of incubation at RT, 3 μL of the reaction mixture are transferred to a 384 deep well plate containing 25 μL of deionized water. 100 μl of 200 nM L-Tryptophan-(indole-d5) in cold 100% methanol are added followed by a 10 minutes centrifugation at 4,000 rpm at 4° C. An additional 75 μL of deionized water are then added and followed by a 10 minutes centrifugation at 4,000 rpm at 4° C. The product of the reaction N′-Formylkynurenine (NFK) is quantified by LCMS and normalized to the L-Tryptophan-(indole-d5) signal. Samples with 0.6% DMSO (0% effect) and a TDO/IDO inhibitor (100% effect) are used as control samples to set the parameters for the non-linear regression necessary for the determination of the half-maximal inhibitory concentration (IC50) for each compound. For each compound concentration the percentage of activity compared to 0% and 100% effect is calculated as average ±STDEV (each concentration measured in duplicate). IC50 values and curves are generated with XLfit software (IDBS) using Dose-Response One Site model 203 (four parameter logistic curve model). When compounds are measured multiple times, mean values are given.

Setting [3] is: read-out: hTDO activity (IC50 in nM).

Structures are written as SMILES. Read-outs that look alike come from different tables or passages of the source.

Chain of Recombinant full-length human IDO1 (P14902 whole entry): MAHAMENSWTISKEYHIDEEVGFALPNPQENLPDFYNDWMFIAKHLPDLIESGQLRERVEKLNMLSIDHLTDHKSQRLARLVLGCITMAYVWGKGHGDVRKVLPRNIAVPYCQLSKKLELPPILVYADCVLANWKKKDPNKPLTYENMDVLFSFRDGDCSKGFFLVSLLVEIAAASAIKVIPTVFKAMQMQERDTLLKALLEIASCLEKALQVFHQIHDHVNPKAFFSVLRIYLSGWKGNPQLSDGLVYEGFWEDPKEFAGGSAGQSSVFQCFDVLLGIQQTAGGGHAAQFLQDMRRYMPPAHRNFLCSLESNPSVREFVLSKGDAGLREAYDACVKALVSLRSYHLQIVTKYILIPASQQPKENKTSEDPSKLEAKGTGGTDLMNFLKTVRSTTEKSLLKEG
Chain of Recombinant human TDO comprising amino acids 19-407 (P48775 19-406 limits assumed): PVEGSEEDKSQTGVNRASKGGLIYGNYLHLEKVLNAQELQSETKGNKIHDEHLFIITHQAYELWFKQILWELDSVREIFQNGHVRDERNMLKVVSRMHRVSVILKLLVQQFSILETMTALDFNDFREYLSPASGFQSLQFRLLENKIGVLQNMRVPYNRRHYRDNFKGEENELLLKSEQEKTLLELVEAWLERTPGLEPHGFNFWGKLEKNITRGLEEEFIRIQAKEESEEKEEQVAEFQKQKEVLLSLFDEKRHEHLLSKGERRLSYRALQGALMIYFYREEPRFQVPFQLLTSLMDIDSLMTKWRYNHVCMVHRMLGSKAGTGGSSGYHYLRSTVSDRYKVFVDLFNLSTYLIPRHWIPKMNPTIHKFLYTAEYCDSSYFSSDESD

Regarding `CC(C)C1CCC(CC(O)c2c(C3CC3)sc3cncn23)CC1` (racemic) [Example 85, rac-1-(2-Cyclopropyl-imidazo[5,1-b]thiazol-3-yl)-2-(4-isopropyl-cyclohexyl)-ethanol], the figures for the IC50 in assay [1] (setting [3]) and in assay [2] were 2830 nM and 511 nM, respectively. For `O[C@H](c1c(C2CCC2)sc2cncn12)C1CCCCC1` [Example 7a, (S)-(2-Cyclobutylimidazo[5,1-b]thiazol-3-yl)(cyclohexyl)methanol], in that order: 138 nM and 39.7 nM. For `OC(c1cccc(Cl)c1)c1c(C2CC2)sc2cncn12` (racemic) [Example 149, rac-(3-Chloro-phenyl)-(2-cyclopropyl-imidazo[5,1-b]thiazol-3-yl)-methanol], in that order: 1820 nM and 65.1 nM. For `Cc1sc2cncn2c1C(O)C1CCCCC1` (racemic) [Example 6, rac-Cyclohexyl-(2-methyl-imidazo[5,1-b]thiazol-3-yl)-methanol], in that order: 143 nM and 134 nM. On to `CC1CCCCC1CC(O)c1c(C2CC2)sc2cncn12` (stereo not shown) [Example 31, 1-(2-Cyclopropyl-imidazo[5,1-b]thiazol-3-yl)-2-(2-methyl-cyclohexyl)-ethanol], for which the values for the IC50 in assay [1] (setting [3]) and in assay [2] were 411 nM and 45.2 nM, respectively. On to `CC1CCC(CC(O)c2c(C3CC3)sc3cncn23)CC1` (racemic) [Example 49, rac-1-(2-Cyclopropyl-imidazo[5,1-b]thiazol-3-yl)-2-(4-methyl-cyclohexyl)-ethanol], for which the IC50 in assay [1] (setting [3]) is 638 nM; in assay [2] it was 50.3 nM. For `OC(CC1CC2C=CC1C2)c1c(C2CC2)sc2cncn12` (stereo not shown) [Example 38, 2-Bicyclo[2.2.1]hept-5-en-2-yl-1-(2-cyclopropyl-imidazo[5,1-b]thiazol-3-yl)-ethanol], in that order: 191 nM and 22.6 nM.

Take `CC1(C)CCC(C)(C(O)c2c(C3CC3)sc3cncn23)C1` (stereo not shown) [Example 139, (2-Cyclopropyl-imidazo[5,1-b]thiazol-3-yl)-(1,3,3-trimethyl-cyclopentyl)-methanol]: the figures for the IC50 in assay [1] (setting [3]) and in assay [2] were 151 nM and 18.7 nM, respectively. In the same order, the values of `CC1(C)CCC(CC(O)c2c(C(F)(F)F)sc3cncn23)C1` (stereo not shown) [Example 121, 2-(3,3-Dimethyl-cyclopentyl)-1-(2-trifluoromethyl-imidazo[5,1-b]thiazol-3-yl)-ethanol] are 8490 nM and 313 nM. For `CC1CCCC1C(O)c1c(C(F)(F)F)sc2cncn12` (stereo not shown) [Example 119, (2-Methyl-cyclopentyl)-(2-trifluoromethyl-imidazo[5,1-b]thiazol-3-yl)-methanol], in that order: 187 nM and 191 nM. For `Cc1ccc(-c2sc3cncn3c2C(O)C2CCCCC2)cc1` (racemic) [Example 126, rac-Cyclohexyl-(2-p-tolyl-imidazo[5,1-b]thiazol-3-yl)-methanol], in that order: 1010 nM and 3100 nM. As for `OC(c1c(C2(F)CC2)sc2cncn12)C1CCCCC1` (racemic) [Example 184, rac-Cyclohexyl-[2-(1-fluoro-cyclopropyl)-imidazo[5,1-b]thiazol-3-yl]-methanol], the IC50 in assay [1] (setting [3]) is 1760 nM; in assay [2], 115 nM.

With `CC1(C)CC[C@H]([C@H](O)c2c(C3CC3)sc3cncn23)C1` [Example 47b, (S)-(2-Cyclopropyl-imidazo[5,1-b]thiazol-3-yl)-((S)-3,3-dimethyl-cyclopentyl)-methanol], the IC50 came to 190 nM in assay [1] (setting [3]) and 5.99 nM in assay [2]. For `OC(c1c(C2CC2)sc2cncn12)C1CCC(c2ccccc2)CC1` (racemic) [Example 73, rac-(2-Cyclopropyl-imidazo[5,1-b]thiazol-3-yl)-(4-phenyl-cyclohexyl)-methanol], in that order: 3110 nM and 43.7 nM. For `OC(c1cn(C2CCCC2)nn1)c1c(C2CC2)sc2cncn12` (racemic) [Example 195, rac-(1-Cyclopentyl-1H-[1,2,3]triazol-4-yl)-(2-cyclopropyl-imidazo[5,1-b]thiazol-3-yl)-methanol], in that order: more than 10200 nM and 96.1 nM.

Turning to `O[C@@H](c1ccccc1)c1c(C2CC2)sc2cncn12` [Example 50a, (S)-(2-Cyclopropyl-imidazo[5,1-b]thiazol-3-yl)-phenyl-methanol], the values for the IC50 in assay [1] (setting [3]) and in assay [2] were 494 nM and 20 nM, respectively. In the same order, the values of `O[C@@H](CC1CCCCC1)c1c(C2CC2)sc2cncn12` [Example 2a, (S)-2-Cyclohexyl-1-(2-cyclopropylimidazo[5,1-b]thiazol-3-yl)ethan-1-ol] are 268 nM and 10.3 nM. `OC(c1c(C2CC2)sc2cncn12)[C@H]1C[C@@H]2CC[C@H]1C2` (relative stereo) [Example 20, rac-(1R*,2R*,4S*)-Bicyclo[2.2.1]hept-2-yl-(2-cyclopropyl-imidazo[5,1-b]thiazol-3-yl)-methanol]: the IC50 is 190 nM in assay [1] (hTDO activity (IC50 in nM)) and 16.1 nM in assay [2]. On to `OC(c1c([C@@H]2C[C@@H]2F)sc2cncn12)C1CCCCC1` (relative stereo) [Example 186, Cyclohexyl-[2-(cis-2-fluoro-cyclopropyl)-imidazo[5,1-b]thiazol-3-yl]-methanol], for which the concentration for half-maximal inhibition (IC50) in assay [1] (setting [3]) was found to be 491 nM; in assay [2], 21.8 nM.

On to `O[C@@H](CC1CCCCC1)c1c(C2CCC2)sc2cncn12` [Example 8a, (S)-1-(2-Cyclobutylimidazo[5,1-b]thiazol-3-yl)-2-cyclohexylethan-1-ol], for which the values for the IC50 in assay [1] (setting [3]) and in assay [2] were 129 nM and 72.3 nM, respectively. For `O[C@H](c1c(Cl)sc2cncn12)C1CCCCC1` [Example 13a, (S)-(2-Chloroimidazo[5,1-b]thiazol-3-yl)(cyclohexyl)methanol], in that order: 162 nM and 93 nM. In the same order, the values of `Cc1sc2cncn2c1C(O)C1CCCC1` (racemic) [Example 113, rac-Cyclopentyl-(2-methyl-imidazo[5,1-b]thiazol-3-yl)-methanol] are 206 nM and 149 nM. For `O[C@H](c1c(C(F)(F)F)sc2cncn12)C1CCCCC1` [Example 63a, (S)-Cyclohexyl-(2-trifluoromethyl-imidazo[5,1-b]thiazol-3-yl)-methanol], in that order: 341 nM and 20.9 nM. Consider `Cc1sc2cncn2c1C(O)CC1CCC(C)(C)CC1` (racemic) [Example 177, rac-2-(4,4-Dimethyl-cyclohexyl)-1-(2-methyl-imidazo[5,1-b]thiazol-3-yl)-ethanol], for which the figures for the IC50 in assay [1] (setting [3]) and in assay [2] were 1950 nM and 199 nM, respectively. `Cc1cscc1-c1sc2cncn2c1C(O)C1CCCCC1` (racemic) [Example 128, rac-Cyclohexyl-[2-(4-methyl-thiophen-3-yl)-imidazo[5,1-b]thiazol-3-yl]-methanol]: the IC50 in assay [1] (setting [3]) amounted to 420 nM.
